Data from ChEMBL document CHEMBL4118122, “Identification and biological evaluation of thiazole-based inverse agonists of RORγt” (Bioorg Med Chem Lett, 2018).

Experiments:
[1] = biological target: Muscarinic acetylcholine receptor M3 (Homo sapiens, UniProt P20309); assay: Displacement of [3H]4-DAMP from human recombinant M3 receptor at 1 uM after 60 mins by scintillation counting analysis relative to control
[2] = Half life in Sprague-Dawley rat at 1 mg/kg, iv; type: ADME, organism-based; conditions: in vivo
[3] = Cmax in Sprague-Dawley rat at 5 mg/kg, po; type: ADME, organism-based; parameters: dose 5 mg/kg, route oral; conditions: in vivo
[4] = biological target: Muscarinic acetylcholine receptor M1 (Homo sapiens, UniProt P11229); assay: Displacement of […] from human recombinant M1 receptor after 60 mins by scintillation counting analysis
[5] = biological target: Glycogen synthase kinase-3 alpha (Homo sapiens) (UniProt P49840); assay: Inhibition of GSK3alpha (unknown origin) at 10 uM in presence of ATP relative to control
[6] = Binding affinity to GABA-gated chloride channel (unknown origin) by antagonist radioligand binding assay; parameters: species or system Homo sapiens
[7] = biological target: B2 bradykinin receptor (Homo sapiens) (UniProt P30411); assay: Displacement of [3H]bradykinin from human recombinant B2 receptor at 10 uM after 60 mins by scintillation counting analysis relative to control
Histamine H2 receptor = Histamine H2 receptor (Homo sapiens, UniProt P25021); assay: Displacement of [125I]APT from human recombinant histamine H2 receptor after 120 mins by scintillation counting analysis
[8] = biological target: 5-hydroxytryptamine receptor 7 (Homo sapiens, UniProt P34969); assay: Displacement of [3H]LSD from human recombinant 5-HT7 receptor at 1 uM after 120 mins by scintillation counting analysis relative to control
[9] = biological target: Beta-1 adrenergic receptor (Homo sapiens, UniProt P08588); assay: Displacement of [3H](-)CGP 12177 from human beta1 adrenoceptor after 60 mins by scintillation counting analysis
[10] = biological target: Adrenergic receptor alpha-2 (Rattus norvegicus) (UniProt P22086+P19328+P22909); assay: Displacement of [3H]-RX 821002 from rat alpha2 adrenoceptor at 10 uM after 60 mins by scintillation counting analysis relative to control; type: protein assay
Cytochrome P450 2C19 = Cytochrome P450 2C19 (Homo sapiens, UniProt P33261); assay: Inhibition of CYP2C19 (unknown origin); type: ADME
[11] = biological target: T1, Nuclear receptor ROR-gamma (Homo sapiens, UniProt P51449); assay: Inverse agonist activity at RORgammat in human CD4 positive T cells assessed as inhibition of IL17A production in human Th17 cells after 1 hr; type: cell-based
T1 sequence (P51449 whole entry): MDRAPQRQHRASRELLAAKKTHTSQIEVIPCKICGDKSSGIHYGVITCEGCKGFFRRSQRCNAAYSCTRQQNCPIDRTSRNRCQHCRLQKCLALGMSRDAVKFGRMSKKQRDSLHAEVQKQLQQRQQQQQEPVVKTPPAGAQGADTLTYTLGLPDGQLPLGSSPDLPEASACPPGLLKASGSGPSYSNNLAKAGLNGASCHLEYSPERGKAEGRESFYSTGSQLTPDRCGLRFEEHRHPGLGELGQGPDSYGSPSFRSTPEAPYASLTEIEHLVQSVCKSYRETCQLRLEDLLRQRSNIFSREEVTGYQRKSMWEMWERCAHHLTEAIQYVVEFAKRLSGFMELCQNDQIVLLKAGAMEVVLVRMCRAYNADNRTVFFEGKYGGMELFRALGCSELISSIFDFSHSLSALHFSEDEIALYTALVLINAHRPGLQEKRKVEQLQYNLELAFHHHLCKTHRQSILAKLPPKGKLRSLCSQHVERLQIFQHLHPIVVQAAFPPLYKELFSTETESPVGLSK

[12] = biological target: Neurotensin receptor type 1 (Homo sapiens, UniProt P30989); assay: Displacement of [125I]Tyr3-neurotensin from human recombinant NTS1 receptor at 10 uM after 120 mins by scintillation counting analysis relative to control
[13] = biological target: Serine/threonine-protein kinase Chk2 (Homo sapiens) (UniProt O96017); assay: Inhibition of recombinant full length His-tagged human CHK2 expressed in baculovirus expression system at 10 uM in presence of ATP relative to control
Vasopressin V1a receptor = Vasopressin V1a receptor (Homo sapiens, UniProt P37288); assay: Displacement of [3H]AVP from human recombinant V1a receptor at 10 uM after 60 mins by scintillation counting analysis relative to control
[14] = biological target: Mitogen-activated protein kinase 1 (Homo sapiens) (UniProt P28482); assay: Inhibition of recombinant GST-tagged human ERK2 expressed in Escherichia coli at 10 uM in presence of ATP relative to control
[15] = biological target: Tyrosine-protein kinase JAK3 (Homo sapiens) (UniProt P52333); assay: Inhibition of recombinant GST-tagged human JAK3 catalytic domain (781 to 1124 residues) expressed in baculovirus expression system at 10 uM in presence of ATP relative to control
[16] = biological target: Muscarinic acetylcholine receptor M1 (Homo sapiens) (UniProt P11229); assay: Displacement of […] from human recombinant M1 receptor at 1 uM after 60 mins by scintillation counting analysis relative to control
[17] = biological target: Type-1 angiotensin II receptor (Homo sapiens) (UniProt P30556); assay: Displacement of [125I][Sar1,Ile8]-AT-II from human recombinant AT1 receptor at 10 uM after 120 mins by scintillation counting analysis relative to control
Melanocortin receptor 4 = Melanocortin receptor 4 (Homo sapiens, UniProt P32245); assay: Displacement of [125I]NDP-alpha-MSH from human recombinant MC4 receptor at 1 uM after 120 mins by scintillation counting analysis relative to control
Adenosine receptor A2a = Adenosine receptor A2a (Homo sapiens, UniProt P29274); assay: Displacement of [3H]-CGS 21680 from human recombinant adenosine A2A receptor after 120 mins by scintillation counting analysis
Substance-K receptor = Substance-K receptor (Homo sapiens, UniProt P21452); assay: Displacement of [125I]NKA from human recombinant NK2 receptor after 60 mins by scintillation counting analysis
[18] = biological target: Protein kinase C beta type (Homo sapiens) (UniProt P05771); assay: Inhibition of PKCbeta1 (unknown origin) at 10 uM in presence of ATP relative to control
[19] = biological target: Serine/threonine-protein kinase PLK1 (Homo sapiens) (UniProt P53350); assay: Inhibition of full length recombinant His-tagged human PLK1 expressed in baculovirus expression system at 10 uM in presence of ATP relative to control
[20] = biological target: Cholecystokinin receptor type A (Homo sapiens) (UniProt P32238); assay: Displacement of [125I]CCK-8s from human recombinant CCK1 receptor at 10 uM after 60 mins by scintillation counting analysis relative to control
[21] = biological target: Mitogen-activated protein kinase 12 (Homo sapiens) (UniProt P53778); assay: Inhibition of recombinant full length His-tagged human p38gamma expressed in baculovirus expression system at 10 uM in presence of ATP relative to control
[22] = biological target: Calcium/calmodulin-dependent protein kinase type II subunit beta (Homo sapiens) (UniProt Q13554); assay: Inhibition of recombinant full length His-tagged human CaMK2beta expressed in baculovirus expression system at 10 uM in presence of ATP relative to control
Sequence of Calcium/calmodulin-dependent protein kinase type II subunit beta (Homo sapiens) (Q13554 whole entry): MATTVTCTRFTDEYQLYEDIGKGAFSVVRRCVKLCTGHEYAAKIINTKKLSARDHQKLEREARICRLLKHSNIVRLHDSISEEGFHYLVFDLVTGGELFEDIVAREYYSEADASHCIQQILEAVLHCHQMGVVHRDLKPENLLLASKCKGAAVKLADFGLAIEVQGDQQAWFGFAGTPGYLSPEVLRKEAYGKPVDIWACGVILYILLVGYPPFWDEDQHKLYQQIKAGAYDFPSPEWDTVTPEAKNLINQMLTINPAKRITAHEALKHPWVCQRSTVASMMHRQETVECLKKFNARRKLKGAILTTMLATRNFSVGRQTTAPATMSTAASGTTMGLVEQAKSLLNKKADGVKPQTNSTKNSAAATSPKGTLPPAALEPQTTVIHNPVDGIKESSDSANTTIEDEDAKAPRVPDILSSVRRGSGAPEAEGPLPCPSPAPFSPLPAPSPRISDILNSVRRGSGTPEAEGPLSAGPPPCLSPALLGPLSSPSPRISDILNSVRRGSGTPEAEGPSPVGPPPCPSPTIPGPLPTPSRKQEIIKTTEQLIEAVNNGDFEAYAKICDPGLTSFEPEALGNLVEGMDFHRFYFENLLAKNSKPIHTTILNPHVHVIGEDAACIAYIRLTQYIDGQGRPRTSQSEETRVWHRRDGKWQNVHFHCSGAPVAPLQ

Sequence of Melanocortin receptor 4 (P32245 whole entry): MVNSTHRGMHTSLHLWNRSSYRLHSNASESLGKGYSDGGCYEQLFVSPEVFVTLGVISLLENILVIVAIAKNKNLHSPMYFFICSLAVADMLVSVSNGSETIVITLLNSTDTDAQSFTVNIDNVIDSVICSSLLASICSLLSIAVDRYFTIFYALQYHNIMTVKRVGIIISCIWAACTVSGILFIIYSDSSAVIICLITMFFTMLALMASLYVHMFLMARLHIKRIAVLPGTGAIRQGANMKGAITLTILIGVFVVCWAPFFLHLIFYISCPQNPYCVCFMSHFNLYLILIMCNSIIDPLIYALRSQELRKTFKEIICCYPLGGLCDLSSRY
Sequence of Cholecystokinin receptor type A (Homo sapiens) (P32238 whole entry): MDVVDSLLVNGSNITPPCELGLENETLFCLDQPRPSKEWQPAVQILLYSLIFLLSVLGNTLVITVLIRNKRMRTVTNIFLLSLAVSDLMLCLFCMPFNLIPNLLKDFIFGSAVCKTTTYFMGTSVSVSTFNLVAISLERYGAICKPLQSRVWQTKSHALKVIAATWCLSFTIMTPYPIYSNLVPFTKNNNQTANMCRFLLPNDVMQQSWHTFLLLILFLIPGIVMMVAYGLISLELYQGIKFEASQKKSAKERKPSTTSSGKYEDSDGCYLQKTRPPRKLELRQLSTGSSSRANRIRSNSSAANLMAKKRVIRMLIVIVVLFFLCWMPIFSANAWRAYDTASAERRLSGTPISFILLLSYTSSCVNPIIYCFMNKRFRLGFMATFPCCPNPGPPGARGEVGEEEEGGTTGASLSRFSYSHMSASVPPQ
Sequence of Serine/threonine-protein kinase Chk2 (Homo sapiens) (O96017 whole entry): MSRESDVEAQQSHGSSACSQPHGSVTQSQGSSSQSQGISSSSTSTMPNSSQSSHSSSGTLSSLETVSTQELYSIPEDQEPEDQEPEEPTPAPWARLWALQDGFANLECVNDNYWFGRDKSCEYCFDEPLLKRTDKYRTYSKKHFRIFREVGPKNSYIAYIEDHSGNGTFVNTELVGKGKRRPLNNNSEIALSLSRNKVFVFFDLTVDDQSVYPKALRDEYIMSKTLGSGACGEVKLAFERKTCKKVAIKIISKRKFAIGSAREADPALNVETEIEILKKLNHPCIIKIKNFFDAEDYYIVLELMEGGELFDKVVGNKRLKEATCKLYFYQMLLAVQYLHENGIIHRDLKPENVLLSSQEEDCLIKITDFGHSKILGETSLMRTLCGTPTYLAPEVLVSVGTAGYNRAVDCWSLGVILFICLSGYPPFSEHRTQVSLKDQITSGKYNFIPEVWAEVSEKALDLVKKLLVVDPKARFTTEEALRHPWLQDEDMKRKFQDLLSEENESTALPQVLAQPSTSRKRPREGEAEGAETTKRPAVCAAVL
Sequence of Tyrosine-protein kinase JAK3 (Homo sapiens) (P52333 whole entry, the tested form may be a part): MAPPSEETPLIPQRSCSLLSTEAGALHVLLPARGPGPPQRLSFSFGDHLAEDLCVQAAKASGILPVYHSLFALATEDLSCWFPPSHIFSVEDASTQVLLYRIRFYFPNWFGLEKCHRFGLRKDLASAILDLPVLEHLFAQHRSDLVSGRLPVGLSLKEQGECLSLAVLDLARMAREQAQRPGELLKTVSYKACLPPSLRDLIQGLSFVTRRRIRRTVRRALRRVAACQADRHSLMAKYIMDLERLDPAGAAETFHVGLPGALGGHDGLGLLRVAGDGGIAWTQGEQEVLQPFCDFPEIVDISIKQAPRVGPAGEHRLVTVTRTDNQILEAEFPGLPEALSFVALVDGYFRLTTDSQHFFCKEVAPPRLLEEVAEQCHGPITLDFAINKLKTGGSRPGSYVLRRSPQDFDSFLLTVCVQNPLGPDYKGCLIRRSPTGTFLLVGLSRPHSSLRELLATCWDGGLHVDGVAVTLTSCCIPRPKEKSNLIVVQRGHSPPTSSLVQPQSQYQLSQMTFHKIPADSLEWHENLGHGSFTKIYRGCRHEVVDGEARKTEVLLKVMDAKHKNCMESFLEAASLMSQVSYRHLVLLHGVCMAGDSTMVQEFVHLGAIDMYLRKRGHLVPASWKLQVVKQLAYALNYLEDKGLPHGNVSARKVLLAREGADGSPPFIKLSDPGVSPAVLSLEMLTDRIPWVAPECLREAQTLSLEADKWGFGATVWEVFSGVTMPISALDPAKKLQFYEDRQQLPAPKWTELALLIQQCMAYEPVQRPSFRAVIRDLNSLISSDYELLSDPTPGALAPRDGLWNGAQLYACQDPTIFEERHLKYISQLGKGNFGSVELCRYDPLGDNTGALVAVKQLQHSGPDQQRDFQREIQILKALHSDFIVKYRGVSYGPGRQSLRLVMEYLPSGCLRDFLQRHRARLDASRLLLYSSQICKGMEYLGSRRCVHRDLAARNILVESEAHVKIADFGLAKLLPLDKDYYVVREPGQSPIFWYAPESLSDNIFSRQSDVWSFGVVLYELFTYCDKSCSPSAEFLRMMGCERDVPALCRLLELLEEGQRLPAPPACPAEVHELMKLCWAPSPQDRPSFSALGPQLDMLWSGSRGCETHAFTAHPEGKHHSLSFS
Sequence of Substance-K receptor (P21452 whole entry): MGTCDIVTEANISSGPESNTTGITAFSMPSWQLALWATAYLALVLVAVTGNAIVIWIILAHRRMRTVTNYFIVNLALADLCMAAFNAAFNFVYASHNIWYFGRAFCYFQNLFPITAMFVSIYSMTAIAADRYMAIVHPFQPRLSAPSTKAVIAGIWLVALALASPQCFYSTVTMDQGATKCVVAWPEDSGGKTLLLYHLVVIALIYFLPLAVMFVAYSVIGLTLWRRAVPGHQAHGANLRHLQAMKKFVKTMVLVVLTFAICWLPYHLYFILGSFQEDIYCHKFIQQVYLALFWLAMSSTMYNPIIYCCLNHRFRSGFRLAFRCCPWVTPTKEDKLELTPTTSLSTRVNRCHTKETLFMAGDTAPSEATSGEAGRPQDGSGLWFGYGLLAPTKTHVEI
Sequence of B2 bradykinin receptor (Homo sapiens) (P30411 whole entry): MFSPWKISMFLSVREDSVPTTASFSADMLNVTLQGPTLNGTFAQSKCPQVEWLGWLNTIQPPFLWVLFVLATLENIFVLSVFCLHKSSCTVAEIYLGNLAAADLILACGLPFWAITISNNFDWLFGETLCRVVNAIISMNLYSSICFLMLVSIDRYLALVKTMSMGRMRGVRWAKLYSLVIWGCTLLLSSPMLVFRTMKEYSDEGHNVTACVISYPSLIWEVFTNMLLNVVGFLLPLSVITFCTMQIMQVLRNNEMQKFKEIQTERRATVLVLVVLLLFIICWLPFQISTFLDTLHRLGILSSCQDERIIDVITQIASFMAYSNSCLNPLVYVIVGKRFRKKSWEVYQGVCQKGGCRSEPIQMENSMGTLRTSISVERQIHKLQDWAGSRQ
Sequence of Cytochrome P450 2C19 (P33261 whole entry): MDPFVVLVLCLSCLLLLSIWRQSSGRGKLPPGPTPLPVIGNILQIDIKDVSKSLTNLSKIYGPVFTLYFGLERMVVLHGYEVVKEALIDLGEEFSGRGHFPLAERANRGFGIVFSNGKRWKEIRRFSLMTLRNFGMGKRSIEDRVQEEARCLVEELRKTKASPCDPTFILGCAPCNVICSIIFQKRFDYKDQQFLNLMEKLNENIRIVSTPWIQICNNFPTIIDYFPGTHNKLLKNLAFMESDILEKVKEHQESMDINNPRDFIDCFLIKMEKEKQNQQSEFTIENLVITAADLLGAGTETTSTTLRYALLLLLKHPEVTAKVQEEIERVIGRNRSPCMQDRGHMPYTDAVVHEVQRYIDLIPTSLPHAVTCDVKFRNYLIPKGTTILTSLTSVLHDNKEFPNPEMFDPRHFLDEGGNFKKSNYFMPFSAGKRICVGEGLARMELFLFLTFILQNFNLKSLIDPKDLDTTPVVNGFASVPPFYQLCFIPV
Sequence of Muscarinic acetylcholine receptor M3 (P20309 whole entry, looked up): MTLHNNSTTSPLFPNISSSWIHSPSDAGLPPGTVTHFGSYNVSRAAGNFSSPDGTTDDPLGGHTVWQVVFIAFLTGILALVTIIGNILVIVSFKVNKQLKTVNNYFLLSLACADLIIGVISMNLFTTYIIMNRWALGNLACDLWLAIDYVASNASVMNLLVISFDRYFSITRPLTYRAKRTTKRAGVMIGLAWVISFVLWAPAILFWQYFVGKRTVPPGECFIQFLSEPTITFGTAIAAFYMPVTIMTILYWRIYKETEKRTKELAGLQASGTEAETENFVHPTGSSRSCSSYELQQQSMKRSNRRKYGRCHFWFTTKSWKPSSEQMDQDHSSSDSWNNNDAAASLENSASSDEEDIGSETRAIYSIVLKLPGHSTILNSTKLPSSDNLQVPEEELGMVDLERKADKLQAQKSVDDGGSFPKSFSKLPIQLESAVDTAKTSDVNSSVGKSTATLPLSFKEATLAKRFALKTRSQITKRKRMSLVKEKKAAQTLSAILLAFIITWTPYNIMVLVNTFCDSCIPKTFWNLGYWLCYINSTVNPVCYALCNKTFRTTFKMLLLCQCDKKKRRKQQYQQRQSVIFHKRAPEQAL

CC(C)(C)NS(=O)(=O)c1ccc(-c2sc(C(=O)N[C@H]3C[C@H](C(=O)O)C3)nc2CC2CCCCC2)c2ccccc12
inhibition [1]: < 10% | half-life [2]: 42 min | Cmax [3]: 130 ng/mL | IC50 [4]: 18 nM | inhibition [5]: 0% | IC50 [6]: 220 nM | inhibition [7]: < 10% | IC50 (Histamine H2 receptor): 142 nM | inhibition [8]: < 10% | IC50 [9]: 297 nM | inhibition [10]: < 10% | INH (Cytochrome P450 2C19): > 10 µM | EC50 [11]: 2.8 nM | inhibition [12]: < 10% | inhibition [13]: -1% | inhibition (Vasopressin V1a receptor): 10% | inhibition [14]: -6% | inhibition [15]: -3% | inhibition [16]: < 10% | inhibition [17]: < 10% | inhibition (Melanocortin receptor 4): < 10% | IC50 (Adenosine receptor A2a): 9.2 nM | IC50 (Substance-K receptor): 1.2 nM | inhibition [18]: -2% | inhibition [19]: -6% | inhibition [20]: 54% | inhibition [21]: -2% | inhibition [22]: 6%
